Assay [1] in a line: Kinetic parameter KM against monoclonal antibody 16 G3.
A short description of assay [2]: Substrate specificity, the ratio of Kcat to that of Km was determined against monoclonal antibody 16 G3.
Assay [3] in a line: Kinetic parameter Vmax against monoclonal antibody 16 G3.
Assay [4] is described as follows: Kinetic parameter effective molarity against monoclonal antibody 16 G3.
A short description of assay [5]: Kinetic parameter Kuncat against monoclonal antibody 16 G3.
A short description of assay [6]: Kinetic parameter Kcat against monoclonal antibody 16 G3.

Structures are written as SMILES.

As for `NC(=O)[C@H](N)Cc1c[nH]c2ccccc12`, the Michaelis constant (Km) in assay [1] turned out to be 900 µM.

Regarding `O=C(O)CCCC(=O)N[C@@H](Cc1ccccc1)C(=O)Oc1ccc([N+](=O)[O-])cc1`, the Substrate specificity in assay [2] was 6. Further, the Km in assay [1] turned out to be 100 µM. The Vmax in assay [3] amounted to 6 µM/min. Besides, in assay [4], the Molarity turned out to be 15 M. Besides, in assay [5], the Kuncat is 0.000667 M⁻¹ s⁻¹. Moreover, in assay [6], the k cat was found to be 0.01 s⁻¹.

As to `O=C(O)CCCC(=O)N[C@H](C(=O)Oc1ccc([N+](=O)[O-])cc1)C1CCCCC1`, the Substrate specificity in assay [2] was found to be 3. Moreover, in assay [1], the Km came out at 300 µM. Moreover, the Vmax in assay [3] worked out at 1 µM/min. In assay [4], this molecule yielded a Molarity of 2 M. Besides, the Kuncat in assay [5] was determined as 0.000833 M⁻¹ s⁻¹. The molecule further came in with a k cat in assay [6] of 0.00167 s⁻¹.

As usually defined, the Km is the substrate concentration at which the rate is half of its maximum. As usually defined, the Vmax is the rate approached at saturating substrate.
